The values below come from PubChem BioAssay (NCI).

Each structure is given as a SMILES string.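 Grown in 96-well plates, cells were treated for 48 hours with each compound at five concentrations. Insufficient inhibition: endpoint recorded as highest concentration tested. GI50 marks 50% less growth. The concentration for full growth arrest is given as TGI.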

Test systems include COLO 205 colon; RPMI-8226 leukemia; NCI-H226 lung; RXF 393 renal; DMS 273 small cell lung; SW-620 colon; KM20L2 colon; CAKI-1 renal; MCF7 breast; M14 melanoma.
Assay in all cases: NCI tumour cell line growth inhibition, 48 h

For `CC(=O)OC1CCC2(C)C3CCC4(C)C(c5ccc(=O)oc5)CC5OC54C3CCC2(O)C1` (centres undefined), the TGI was found to be 10.3 µM in the test on COLO 205 colon; 14.1 µM in the test on RPMI-8226 leukemia; 25.1 µM in the test with NCI-H226 lung; 1.61 µM in the test with RXF 393 renal; 6 µM in the test on DMS 273 small cell lung; 4.04 µM in the test with SW-620 colon. Further, the TGI was determined as 13.2 µM with KM20L2 colon, 2.23 µM in the test on CAKI-1 renal and 14.8 µM in the test with MCF7 breast.

In the case of `CC(=O)Oc1cccc2c(/C=N/NC(N)=S)ncc(C)c12`, the TGI was over 41 µM in the test on COLO 205 colon; 24.5 µM in the test with RPMI-8226 leukemia; 12.8 µM with NCI-H226 lung; 23.7 µM with RXF 393 renal; over 49.7 µM in the test with SW-620 colon; 15.6 µM in the test on CAKI-1 renal. In addition, the figures for the TGI with M14 melanoma and in the test on MCF7 breast were 3.18 µM and 3.32 µM, respectively.

Consider `CC1CC=CC(O)C1` (centres undefined), for which the TGI in the test on COLO 205 colon, in the test on RPMI-8226 leukemia, in the test with NCI-H226 lung, in the test with RXF 393 renal, in the test with DMS 273 small cell lung and with SW-620 colon was over 100 µM throughout. Moreover, the TGI with KM20L2 colon and with MCF7 breast was over 100 µM each time.

Take `NC(CCCCP(=O)(O)O)C(=O)O` (centres undefined): the TGI with COLO 205 colon, in the test with RPMI-8226 leukemia, with RXF 393 renal, in the test with SW-620 colon, in the test with CAKI-1 renal and with M14 melanoma was over 100 µM throughout.

`CCC[CH2][Ge]([CH2]CCC)([CH2]CCC)[O]C(=O)CC(=O)c1ccccc1`: the GI50 in the test with COLO 205 colon is 1550 nM; with RPMI-8226 leukemia, 959 nM; with NCI-H226 lung, 3.23 µM; with RXF 393 renal, 728 nM; in the test with DMS 273 small cell lung, 752 nM; in the test on SW-620 colon it was 825 nM. Moreover, the GI50 in the test with KM20L2 colon was 770 nM; in the test with CAKI-1 renal, 6.37 µM; with M14 melanoma, 1420 nM. For the same molecule, the TGI in the test on COLO 205 colon is 13.3 µM; in the test on RPMI-8226 leukemia it was over 100 µM; in the test on NCI-H226 lung, 17.2 µM; in the test on RXF 393 renal, 3.65 µM; in the test on DMS 273 small cell lung, 13.4 µM; in the test with SW-620 colon, 12.6 µM. Further, the TGI was 17 µM in the test with KM20L2 colon, 20.6 µM in the test with CAKI-1 renal and 8.86 µM with M14 melanoma.

As for `NNC(N)Nc1ccccc1` (centres undefined), the TGI in the test on COLO 205 colon, with NCI-H226 lung, in the test with RXF 393 renal, with SW-620 colon, with CAKI-1 renal and with M14 melanoma was over 100 µM throughout. The molecule also displayed a TGI in the test with MCF7 breast of over 100 µM.

For the molecule `NCCCNc1nc2ccccc2c2c(=O)c3cc(OC(F)(F)F)ccc3sc12`, in the test on CAKI-1 renal, the GI50 is 1.58 µM and the TGI amounted to 2.93 µM. Also, in the test with M14 melanoma, the GI50 is 1670 nM and the TGI was determined as 3.16 µM.

On to `C=CC(Br)(CBr)CCC(Cl)C(C)C` (centres undefined), for which the TGI in the test on COLO 205 colon was 10.2 µM; with NCI-H226 lung it was 27.7 µM; with RXF 393 renal it was 3.31 µM; in the test on SW-620 colon, 3.35 µM; with CAKI-1 renal, 7.52 µM; with M14 melanoma it was 3.18 µM. The TGI in the test with MCF7 breast was found to be 3.07 µM.

For `COc1ccccc1C1C(C(=O)O)=C(CO)Oc2cc3c(cc21)OCO3` (centres undefined), the TGI in the test on COLO 205 colon, with RPMI-8226 leukemia, with NCI-H226 lung, in the test on DMS 273 small cell lung, with SW-620 colon and in the test on KM20L2 colon was over 100 µM throughout. The TGI in the test with CAKI-1 renal and with M14 melanoma was over 100 µM in each case.

Regarding `Cc1ccc(S(=O)(=O)Oc2cc(-c3ccccc3)nc3ccccc23)cc1`, the TGI was 1.18 µM with COLO 205 colon; 7.71 µM in the test with RPMI-8226 leukemia; 26.5 µM in the test with NCI-H226 lung; 11.9 µM in the test with RXF 393 renal; over 28 µM in the test with DMS 273 small cell lung; over 47.3 µM in the test on SW-620 colon. Further, the TGI in the test on KM20L2 colon is 3.52 µM; in the test on MCF7 breast it was over 48.4 µM.

Consider `Cc1cc(=O)[nH]c(NN2C(Cl)C(=O)C2c2cccc(O)c2)n1` (centres undefined), for which the TGI is over 100 µM with COLO 205 colon; over 100 µM in the test with RPMI-8226 leukemia; over 100 µM in the test on RXF 393 renal; over 100 µM with DMS 273 small cell lung; over 100 µM with SW-620 colon; 98.5 µM in the test with KM20L2 colon. Besides, the TGI in the test on M14 melanoma was over 100 µM.

Consider `O=C(OC(=O)n1ccc2ccccc21)n1ccc2ccccc21`, for which the TGI with COLO 205 colon, with RPMI-8226 leukemia, with NCI-H226 lung, with RXF 393 renal, in the test with DMS 273 small cell lung and in the test on SW-620 colon was over 100 µM in each case. The TGI in the test with KM20L2 colon, with CAKI-1 renal and in the test on MCF7 breast was over 100 µM throughout.
